In brackets after ≈: the same amount, converted by molar mass. Where two headings read alike, the source gives them in different places.
Assays:
[1] = tested on: genotype 1a H-77 replicon; assay: HCV-1a replicon potency in RLuc-1 cells, bioluminescence; assay type: cell-based; settings: for HCV-1a Replicon Selectivity Index: CC50/EC50, genotype 1a replicon
genotype 1b replicon = assay: HCV genotype 1b replicon potency in R-luc cells, bioluminescence; assay type: cell-based; settings: 72 hours, average of two or more independent experiments ± std. dev, read-out: Stable replicon cell lines EC50 (μM) Genotype1b (R-luc)
[2] = tested on: genotype 1a H-77 replicon; assay: HCV genotype 1a replicon potency in GLuc-1 cells, bioluminescence; assay type: cell-based; settings: 72 hours, average of two or more independent experiments ± std. dev, read-out: Stable replicon cell lines EC50 (μM) Genotype 1a (Gluc-1)
[3] = tested on: infectious genotype 2a virus (a J6/JFH-1 chimera); assay: JFH-1 HCV-2a virus assay in Lunet-CD81 cells, NS3 expression readout; assay type: cell-based
RLuc-1 cells = assay: Cytotoxicity in HCV-1a replicon cells, Promega CellTiter-Glo cell viability assay; settings: read-out: HCV-1a Replicon CC50; replicon cells, 72 hours, CellTiter-Glo
HIV-1 strain IIIB = assay: Inhibition of replication of HIV-1 (IIIB strain) in MT-4 cells, MTT assay; assay type: cell-based; settings: read-out: EC50 (μM) HIV-1 (IIIB)
HIV-2 strain (ROD) = assay: Inhibition of replication of HIV-2 (ROD strain) in MT-4 cells, MTT assay; assay type: cell-based; settings: Human immunodeficiency virus 2, MT4, 120 h, read-out: EC50 (μM) HIV-2 (ROD)
poliovirus (PV type 1) = assay: microbe, parasite or virus in culture; assay type: cell-based; settings: Enterovirus C, read-out: PV-1 EC50
poliovirus (PV type 2) = assay: microbe, parasite or virus in culture; assay type: cell-based; settings: Enterovirus C, read-out: PV-2 EC50
poliovirus (PV type 3) = assay: microbe, parasite or virus in culture; assay type: cell-based; settings: Enterovirus C, read-out: PV-3 EC50
hRV-2 = assay: Rhinovirus type 2 antiviral assay in Hela Rh cells, MTS readout; assay type: cell-based, Human rhinovirus; settings: Rhinovirus A, HRV2, HeLa Rh, Hela Rh cells; read-out: hRV-2 EC50
hRV-9 = assay: Rhinovirus type 9 antiviral assay in Hela Rh cells, MTS readout; assay type: cell-based, Human rhinovirus; settings: Human rhinovirus sp., HRV9, HeLa Rh, Hela Rh cells; read-out: hRV-9 EC50
hRV-14 = assay: Rhinovirus type 14 antiviral assay in Hela Rh cells, MTS readout; assay type: cell-based, Human rhinovirus; settings: Rhinovirus B, HRV14, HeLa Rh, Hela Rh cells; read-out: hRV-14 EC50
hRV-15 = assay: Rhinovirus type 15 antiviral assay in Hela Rh cells, MTS readout; assay type: cell-based, Human rhinovirus; settings: Human rhinovirus sp., HRV15, HeLa Rh, Hela Rh cells; read-out: hRV-15 EC50
hRV-29 = assay: Rhinovirus type 29 antiviral assay in Hela Rh cells, MTS readout; assay type: cell-based; settings: Human rhinovirus sp., HRV29, HeLa Rh, Hela Rh cells; read-out: hRV-29 EC50
hRV-39 = assay: Rhinovirus type 39 antiviral assay in Hela Rh cells, MTS readout; assay type: cell-based, Human rhinovirus; settings: Human rhinovirus sp., HRV39, HeLa Rh, Hela Rh cells; read-out: hRV-39 EC50
hRV-41 = assay: Rhinovirus type 41 antiviral assay in Hela Rh cells, MTS readout; assay type: cell-based, Human rhinovirus; settings: Human rhinovirus sp., HRV41, HeLa Rh, Hela Rh cells; read-out: hRV-41 EC50
hRV-42 = assay: Rhinovirus type 42 antiviral assay in Hela Rh cells, MTS readout; assay type: cell-based, Human rhinovirus; settings: Human rhinovirus sp., HRV42, HeLa Rh, Hela Rh cells; read-out: hRV-42 EC50
hRV-45 = assay: Rhinovirus type 45 antiviral assay in Hela Rh cells, MTS readout; assay type: cell-based, Human rhinovirus; settings: Human rhinovirus sp., HRV45, HeLa Rh, Hela Rh cells; read-out: hRV-45 EC50
hRV-63 = assay: Rhinovirus type 63 antiviral assay in Hela Rh cells, MTS readout; assay type: cell-based, Human rhinovirus; settings: Human rhinovirus sp., HRV63, HeLa Rh, Hela Rh cells; read-out: hRV-63 EC50
hRV-70 = assay: Rhinovirus type 70 antiviral assay in Hela Rh cells, MTS readout; assay type: cell-based, Human rhinovirus; settings: Human rhinovirus sp., HRV70, HeLa Rh, Hela Rh cells; read-out: hRV-70 EC50
hRV-72 = assay: Rhinovirus type 72 antiviral assay in Hela Rh cells, MTS readout; assay type: cell-based, Human rhinovirus; settings: Human rhinovirus sp., HRV72, HeLa Rh, Hela Rh cells; read-out: hRV-72 EC50
hRV-85 = assay: Rhinovirus type 85 antiviral assay in Hela Rh cells, MTS readout; assay type: cell-based, Human rhinovirus; settings: Human rhinovirus sp., HRV85, HeLa Rh, Hela Rh cells; read-out: hRV-85 EC50
hRV-86 = assay: Rhinovirus type 86 antiviral assay in Hela Rh cells, MTS readout; assay type: cell-based, Human rhinovirus; settings: Human rhinovirus sp., HRV86, HeLa Rh, Hela Rh cells; read-out: hRV-86 EC50
in vitro [4] = settings: human
in vitro [5] = settings: African green monkey, PV CC50
in vitro [6] = settings: human, PV CC50
[7] = Cytostatic/cytotoxic effect in Hela Rh cells (rhinovirus methodology, MTS); settings: human, CC50, Hela Rh cells
[8] = Cytotoxicity in HCV-1a replicon cells, Promega CellTiter-Glo cell viability assay
[9] = target: purine nucleoside phosphorylase (Homo sapiens, UniProt P00491); settings: J. C. Sircar et al. J. Med. Chem. 1986, 29, 1804-1806; cited from earlier work
Sequence of purine nucleoside phosphorylase (P00491 whole entry, species assumed): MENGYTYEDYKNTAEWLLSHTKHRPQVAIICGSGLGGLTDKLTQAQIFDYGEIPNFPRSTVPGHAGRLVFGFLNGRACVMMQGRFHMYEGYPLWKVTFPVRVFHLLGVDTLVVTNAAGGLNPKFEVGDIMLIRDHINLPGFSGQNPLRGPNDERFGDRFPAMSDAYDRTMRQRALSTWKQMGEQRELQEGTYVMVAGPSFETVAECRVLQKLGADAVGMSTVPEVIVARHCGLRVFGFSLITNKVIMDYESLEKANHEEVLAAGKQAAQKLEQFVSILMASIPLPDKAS

[10] = Cytotoxicity in G-luc replicon cells, Promega CellTiter-Glo cell viability assay; settings: G-luc (GLuc-1) HCV genotype 1a H-77 replicon cells
[11] = RLuc-1 cells, 72 hours, bioluminescence, read-out: HCV-1a Replicon EC50
[12] = J6/JFH-1 chimera, MOI of 1, 72 hours, NS3 readout, read-out: Genotype 2a Virus (Lunet-CD81) EC50
[13] = MT-4 cells, MTT assay, five days after infection, 50% protection from cytopathic effect
[14] = Hepatitis C virus, 72 h, read-out: HCV-1a Replicon EC50 (μM)
[15] = Hepatitis C virus, 72 h, read-out: Genotype 2a Virus (Lunet-CD81) EC50 (μM)

## CCCc1nc2c(N3CCN(C(=O)COc4ccc(Cl)cc4)CC3)nc(N)nc2[nH]1 [Example 397, 1-(4-(2-amino-8-propyl-9H-purin-64)piperazin-1-yl)-2-(4-chlorophenoxy)ethanone]
[1]; [11]
  EC50: 1.1 µM
Genotype 1b replicon
  EC50: 0.14 ± 0.11 µM
[2]
  EC50: 0.181 ± 0.108 µM
[3]; [12]
  EC50: 31.2 µM
RLuc-1 cells
  CC50: > 44.4 µM

## Nc1nc(N2CCN(C(=O)COc3ccc(Br)cc3)CC2)c2nc(CCc3ccc(F)cc3)sc2n1 [Example 52, 1-(4-(5-amino-2-(4-fluorophenethyl)thiazolo[5,4-d]pyrimidin-7-yl)piperazin-1-yl)-2-(4-bromophenoxy)ethanone]
HIV-1 strain IIIB; Human immunodeficiency virus 1, IIIB, MT4, 120 h, MT-4 cells, MTT assay, five days after infection, 50% protection from cytopathic effect
  EC50: 2.71 µM
HIV-2 strain (ROD); [13]
  EC50: > 95.7 µM
[1]
  HCV-1a Replicon Selectivity Index: >1.3
[1]; [14]
  EC50: 35.3 µM
Poliovirus (PV type 1); HeLa
  EC50: 0.39 µg/mL (≈ 0.682 µM)
Poliovirus (PV type 1); Vero
  EC50: 0.12 µg/mL (≈ 0.21 µM)
Poliovirus (PV type 2); HeLa
  EC50: 0.38 µg/mL (≈ 0.665 µM)
Poliovirus (PV type 2); Vero
  EC50: 0.1 µg/mL (≈ 0.175 µM)
Poliovirus (PV type 3); HeLa
  EC50: > 50 µg/mL
Poliovirus (PV type 3); Vero
  EC50: 0.49 µg/mL (≈ 0.857 µM)
hRV-2
  EC50: 15.7 µg/mL (≈ 27.5 µM)
hRV-9
  EC50: > 50 µg/mL
hRV-14
  EC50: > 50 µg/mL
hRV-15
  EC50: > 50 µg/mL
hRV-29
  EC50: > 50 µg/mL
hRV-39
  EC50: 30.7 µg/mL (≈ 53.7 µM)
hRV-41
  EC50: > 50 µg/mL
hRV-42
  EC50: > 50 µg/mL
hRV-45
  EC50: > 50 µg/mL
hRV-63
  EC50: > 50 µg/mL
hRV-70
  EC50: > 50 µg/mL
hRV-72
  EC50: > 50 µg/mL
hRV-85
  EC50: 21.9 µg/mL (≈ 38.4 µM)
hRV-86
  EC50: > 50 µg/mL
In vitro [4]
  CC50: 95.7 µM
In vitro [5]
  CC50: 111 µg/mL (≈ 195 µM)
In vitro [6]
  CC50: > 50 µg/mL
[7]
  CC50: > 50 µg/mL
[8]
  CC50 at 72 h: > 44.4 µM

## Nc1nc2sc(N)nc2c(=O)[nH]1 [2,5-Diaminothiazolo[5,4-d]pyrimidin-7(6H)-one]
[9]
  inhibitor of purine nucleoside phosphorylase: weak inhibitor

## Nc1nc(N2CCN(C(=O)COc3ccccc3)CC2)c2nc(-c3ccc(F)cc3)[nH]c2n1 [Example 401, 1-(4-(2-amino-8-(4-fluorophenyl)-9H-purin-6-yl)piperazin-1-yl)-2-phenoxyethanone]
[1]
  HCV-1a Replicon Selectivity Index: 26.5
[1]; [14]
  EC50: 0.8 µM
Genotype 1b replicon; Hepatitis C virus
  EC50: 0.081 ± 0.041 µM
[2]; Hepatitis C virus
  EC50: 0.059 ± 0.008 µM
[3]; [15]
  EC50: 15.4 µM
[10]
  CC50 at 72 h: > 50 µM
[8]
  CC50 at 72 h: 20.4 µM

## Nc1nc(N2CCN(C(=O)COc3ccc(Cl)cc3)CC2)c2nc(C3CC3)[nH]c2n1 [Example 398, 1-(4-(2-amino-8-cyclopropyl-9H-purin-6-yl)piperazin-1-yl)-2-(4-chlorophenoxy)ethanone]
[1]
  HCV-1a Replicon Selectivity Index: >143
[1]; [14]
  EC50: 0.3 µM
Genotype 1b replicon; Hepatitis C virus
  EC50: 0.192 ± 0.008 µM
[2]; Hepatitis C virus
  EC50: 0.274 ± 0.04 µM
[3]; [15]
  EC50: 29 µM
[10]
  CC50 at 72 h: > 50 µM
[8]
  CC50 at 72 h: > 44.4 µM

## CSc1nc2c(N3CCN(C(=O)COc4ccc(Cl)cc4)CC3)nc(N)nc2n1C [Example 428, 1-(4-(2-amino-9-methyl-8-(methylthio)-9H-purin-6-yl)piperazin-1-yl)-2-(4-chlorophenoxy)ethanone]
[1]
  HCV-1a Replicon Selectivity Index: >888
[1]; [14]
  EC50: 0.05 µM
Genotype 1b replicon; Hepatitis C virus
  EC50: 0.005 ± 0.002 µM
[2]; Hepatitis C virus
  EC50: 0.056 ± 0.002 µM
[3]; [15]
  EC50: > 50 µM
[10]
  CC50 at 72 h: > 50 µM
[8]
  CC50 at 72 h: > 44.4 µM

## CCOc1nc(N)nc2sc(-c3ccc(F)cc3)cc12 [Example 363, 4-ethoxy-6-(4-fluorophenyl)thieno[2,3-d]pyrimidin-2-amine]
HIV-1 strain IIIB; Human immunodeficiency virus 1, IIIB, MT4, 120 h
  EC50: ≥ 432 µM
HIV-2 strain (ROD)
  EC50: ≥ 432 µM
other
  melting point: 142 °C
In vitro [4]
  CC50: 432 µM

## COCCCNc1nc(N)nc2sc(-c3ccc(F)cc3)nc12 [Example 32, 2-(4-fluorophenyl)-N-7-(3-methoxypropyl)thiazolo[5,4-d]pyrimidine-5,7-diamine]
HIV-1 strain IIIB; [13]
  EC50: > 349 µM
MT-4 cells
  CC50: > 365 µM

## Nc1nc(N2CCN(C(=O)COc3ccc(Cl)cc3)CC2)c2nc(C3CC3)sc2n1 [Example 119, 5-amino-2-cyclopropyl-7-[4-(4-chlorophenoxyacetyl)piperazin-1-yl]-thiazolo[5,4-d]pyrimidine]
[1]
  HCV-1a Replicon Selectivity Index: >87
[1]; [14]
  EC50: 0.5 µM
Genotype 1b replicon; Hepatitis C virus
  EC50: 0.341 ± 0.024 µM
[2]; Hepatitis C virus
  EC50: 0.422 ± 0.104 µM
[3]; [15]
  EC50: > 50 µM
Poliovirus (PV type 1); HeLa
  EC50: 24.1 µg/mL (≈ 54.1 µM)
Poliovirus (PV type 1); Vero
  EC50: 0.34 µg/mL (≈ 0.764 µM)
Poliovirus (PV type 2); HeLa
  EC50: 1.21 µg/mL (≈ 2.72 µM)
Poliovirus (PV type 2); Vero
  EC50: 0.33 µg/mL (≈ 0.742 µM)
Poliovirus (PV type 3); HeLa
  EC50: > 50 µg/mL
Poliovirus (PV type 3); Vero
  EC50: 12.5 µg/mL (≈ 28 µM)
In vitro [5]
  CC50: > 150 µg/mL
In vitro [6]
  CC50: > 50 µg/mL
[10]
  CC50 at 72 h: > 50 µM
[8]
  CC50 at 72 h: > 44.4 µM

## Nc1nc(NCc2ccccc2)c2cc(-c3ccc(F)cc3)sc2n1 [Example 327, 2-amino-4-N-benzylamino-6-(4-fluorophenyl)-thieno[2,3-d]pyrimidine]
[1]; [11]
  EC50: 38.6 µM
RLuc-1 cells
  CC50: 23.2 µM

## Cc1nc2c(N3CCN(C(=O)COc4ccc(Cl)cc4)CC3)nc(N)nc2[nH]1 [Example 400, 1-(4-(2-amino-8-methyl-9H-purin-6-yl)piperazin-1-yl)-2-(4-chlorophenoxy)ethanone]
[1]
  HCV-1a Replicon Selectivity Index: >164
[1]; [14]
  EC50: 0.3 µM
Genotype 1b replicon; Hepatitis C virus
  EC50: 0.188 ± 0.012 µM
[2]; Hepatitis C virus
  EC50: 0.125 ± 0.035 µM
[3]; [15]
  EC50: > 50 µM
[10]
  CC50 at 72 h: > 50 µM
[8]
  CC50 at 72 h: > 44.4 µM

## C[C@@]1(O)[C@H](O)[C@@H](CO)O[C@H]1n1cnc2c(N)ncnc21 [2′CMA]
Genotype 1b replicon
  EC50: 0.3 ± 0.02 µM
[2]
  EC50: 0.23 ± 0.3 µM
[3]; [12]
  EC50: 0.3 ± 0.03 µM

From patent US9730944B2, “Antiviral activity of novel bicyclic heterocycles” (priority 2010, dated 2017)
